Structures can show the parent of a compound that is named as a salt.
What was measured:
[1] = Fedratinib pharmacokinetics in healthy subjects; type: in vivo, human
FLT3 kinase = target: T1, FLT3 kinase (Homo sapiens, UniProt P36888); details: cited from earlier work
T1 sequence (P36888 27-993): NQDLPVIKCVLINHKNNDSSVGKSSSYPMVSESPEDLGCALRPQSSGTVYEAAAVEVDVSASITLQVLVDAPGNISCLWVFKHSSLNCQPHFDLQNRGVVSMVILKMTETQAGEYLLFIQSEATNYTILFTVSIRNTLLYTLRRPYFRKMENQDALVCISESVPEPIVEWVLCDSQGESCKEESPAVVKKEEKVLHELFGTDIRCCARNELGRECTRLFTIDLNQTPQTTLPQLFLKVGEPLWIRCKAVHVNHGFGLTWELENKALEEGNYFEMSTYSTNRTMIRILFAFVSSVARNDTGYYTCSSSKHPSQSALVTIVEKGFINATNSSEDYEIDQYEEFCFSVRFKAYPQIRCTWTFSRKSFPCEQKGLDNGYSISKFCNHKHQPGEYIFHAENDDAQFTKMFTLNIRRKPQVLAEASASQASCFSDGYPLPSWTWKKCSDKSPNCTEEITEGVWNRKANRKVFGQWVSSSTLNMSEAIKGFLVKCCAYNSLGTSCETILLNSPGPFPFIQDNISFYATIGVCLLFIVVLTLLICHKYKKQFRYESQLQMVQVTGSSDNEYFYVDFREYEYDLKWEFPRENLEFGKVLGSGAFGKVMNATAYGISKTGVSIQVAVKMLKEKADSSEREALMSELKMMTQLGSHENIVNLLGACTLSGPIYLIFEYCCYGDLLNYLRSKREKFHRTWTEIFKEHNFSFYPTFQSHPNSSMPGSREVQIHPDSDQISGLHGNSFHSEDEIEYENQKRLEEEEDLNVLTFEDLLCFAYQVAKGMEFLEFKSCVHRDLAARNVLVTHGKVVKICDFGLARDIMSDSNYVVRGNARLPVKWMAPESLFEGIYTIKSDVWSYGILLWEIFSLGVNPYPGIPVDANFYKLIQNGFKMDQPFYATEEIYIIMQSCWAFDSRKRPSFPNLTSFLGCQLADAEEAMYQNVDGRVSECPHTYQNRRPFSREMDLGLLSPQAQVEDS

[2] = tested on: CYP3A4, CYP2C19 and flavin-containing monooxygenases (FMOs); assay: In vitro evaluations of fedratinib metabolism; type: in vitro ADME
JAK2V617F-driven MPNs = details: mouse models; cited from earlier work
[3] = Tolerability of single fedratinib doses in healthy subjects; type: in vivo, human
[4] = tested on: patient-derived cell lines expressing JAK2V617F and cells engineered to express WT JAK2 or JAK2V617F; details: cited from earlier work
nausea and vomiting = assay: Ondansetron prophylaxis in a previous Phase 1 fedratinib study; type: in vivo, human; details: prophylaxis before fedratinib
Text: A subsequent oral dose(s) of ondansetron may be given, as necessary, in accordance with the United States Package Insert (USPI).

**Q.** Which results are given for `Cc1cnc(Nc2ccc(OCCN3CCCC3)cc2)nc1Nc1cccc(S(=O)(=O)NC(C)(C)C)c1` [fedratinib, N-tert-butyl-3-[(5-methyl-2-{[4-(2-pyrrolidin-1-ylethoxy)phenyl]amino}pyrimidin-4-yl)amino]benzenesulfonamide dihydrochloride monohydrate]?
**A.** fraction of total fedratinib AUC captured ([1]; by 168 hours postdose, healthy subjects): approximately 90%; PK linearity ([1]; clinically relevant dose range, single-dose PK predicts multiple-dose PK): linear; half-life ([1]; human, in vivo, healthy subjects, read-out: effective half-life (converted)): ~30 h; inhibition of FLT3 kinase (FLT3 kinase): inhibits; metabolizing enzymes [2]: metabolized by multiple CYPs, with the predominant contribution from CYP3A4, and with lesser contributions from CYP2C19 and flavin-containing monooxygenases (FMOs); STAT phosphorylation (JAK2V617F-driven MPNs): blocked phosphorylation of STATS/5; disease-associated symptoms (leukopenia, anemia, splenomegaly, fibrosis) (JAK2V617F-driven MPNs): improved disease-associated symptoms; survival (JAK2V617F-driven MPNs): increased survival; single dose tolerated [3]: up to 680 mg; STAT phosphorylation [4]: reduced phosphorylation of STATS/STATS; apoptosis [4]: increased apoptosis; cell proliferation [4]: inhibited cell proliferation

**Q.** Which nausea and vomiting (nausea and vomiting) does the source give for `Cc1nccn1CC1CCc2c(c3ccccc3n2C)C1=O` (stereo not shown) [Ondansetron] here?
**A.** Its nausea and vomiting is “reduce nausea and vomiting”.

Reference: US20240058336A1 (IMPACT BIOMEDICINES, INC., priority 2020, published 2024)
